Columns and labels:
Cannabinoid receptor 2 = Cannabinoid receptor 2 (Homo sapiens, UniProt P34972); assay: Displacement of [3H]CP-55940 from human CB2 receptor expressed in HEK293 cells; format: cell-based
Cannabinoid receptor 1 [1] = biological target: T1, Cannabinoid receptor 1 (Homo sapiens, UniProt P21554); assay: Antagonist activity at human CB1 receptor expressed in HEK293 cells assessed as inhibition of Eu-GTP binding; format: cell-based
Homo sapiens = organism: Homo sapiens; assay: Selectivity ratio of IC50 for human CB2 receptor to IC50 for human CB1 receptor
Cannabinoid receptor 1 [2] = biological target: T1, Cannabinoid receptor 1; assay: Displacement of [3H]CP-55940 from human CB1 receptor expressed in HEK293 cells at 10 uM; format: cell-based
Cannabinoid receptor 1 [3] = biological target: T1, Cannabinoid receptor 1; assay: biochemical; format: cell-based, HEK293

T1 sequence (P21554 whole entry): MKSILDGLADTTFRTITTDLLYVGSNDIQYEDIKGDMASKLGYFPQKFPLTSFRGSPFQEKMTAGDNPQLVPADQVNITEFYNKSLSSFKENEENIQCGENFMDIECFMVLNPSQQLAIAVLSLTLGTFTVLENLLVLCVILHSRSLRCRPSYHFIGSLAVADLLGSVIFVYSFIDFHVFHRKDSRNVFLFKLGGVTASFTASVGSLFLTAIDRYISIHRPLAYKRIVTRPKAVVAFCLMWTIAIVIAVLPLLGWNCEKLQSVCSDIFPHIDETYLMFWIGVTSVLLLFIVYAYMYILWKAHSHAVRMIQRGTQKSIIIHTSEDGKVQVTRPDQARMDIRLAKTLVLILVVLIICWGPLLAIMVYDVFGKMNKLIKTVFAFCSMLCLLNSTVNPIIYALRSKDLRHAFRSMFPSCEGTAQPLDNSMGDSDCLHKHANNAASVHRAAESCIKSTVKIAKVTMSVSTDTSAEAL
Sequence of Cannabinoid receptor 2 (P34972 whole entry): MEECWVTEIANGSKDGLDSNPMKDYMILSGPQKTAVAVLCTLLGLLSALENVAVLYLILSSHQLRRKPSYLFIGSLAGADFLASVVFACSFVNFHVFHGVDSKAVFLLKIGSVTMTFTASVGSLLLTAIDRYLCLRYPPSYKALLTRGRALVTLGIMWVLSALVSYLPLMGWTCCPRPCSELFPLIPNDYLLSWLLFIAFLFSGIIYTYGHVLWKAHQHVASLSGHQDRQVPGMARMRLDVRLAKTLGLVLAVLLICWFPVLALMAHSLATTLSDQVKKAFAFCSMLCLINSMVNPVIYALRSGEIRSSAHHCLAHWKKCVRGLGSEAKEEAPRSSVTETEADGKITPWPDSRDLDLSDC

| SMILES | IC50 (Cannabinoid receptor 2) [nM] | EC50 (Cannabinoid receptor 1 [1]) [nM] | Ratio IC50 (Homo sapiens) | inhibition (Cannabinoid receptor 1 [2]) [%] | IC50 (Cannabinoid receptor 1 [3]) [nM] |
| --- | --- | --- | --- | --- | --- |
| O=C(Cn1nc(-c2ccc(Cl)cc2Cl)c(-c2ccc(Cl)cc2Cl)n1)NCc1ccccc1 | > 10000 | 87 | > 1000 |  |  |
| O=C(Cn1nc(-c2ccc(Cl)cc2Cl)c(-c2ccc(Cl)cc2Cl)n1)NCc1ccccc1F | > 10000 | 23.5 | > 1000 |  |  |
| CCCCOC(=O)Cn1nc(-c2ccc(Cl)cc2Cl)c(-c2ccc(Cl)cc2Cl)n1 |  |  | > 1000 |  |  |
| O=C(NC12CC3CC(CC(C3)C1)C2)n1nc(-c2ccc(Cl)cc2)c(-c2ccc(Cl)cc2)n1 |  |  | > 1000 | 19.7 |  |
| O=C(Cn1nc(-c2ccc(Cl)cc2Cl)c(-c2ccc(Cl)cc2Cl)n1)Oc1ccccc1 |  |  | > 1000 | 14.3 |  |
| O=C(NCc1ccccc1)n1nc(-c2ccc(Cl)cc2)c(-c2ccc(Cl)cc2Cl)n1 |  |  | > 1000 | 18.6 |  |
| O=C(Cn1nc(-c2ccc(Cl)cc2Cl)c(-c2ccc(Cl)cc2Cl)n1)NCc1ccccc1Cl | > 10000 | 12.2 | > 1000 |  |  |
| O=C(NCc1ccccc1)n1nc(-c2ccc(Cl)cc2Cl)c(-c2ccc(Cl)cc2Cl)n1 |  |  | > 1000 | 23.8 |  |
| O=C(Cn1nc(-c2ccc(Cl)cc2Cl)c(-c2ccc(Cl)cc2Cl)n1)N1CCCCC1 | 5900 |  |  |  |  |
| O=C(Cn1nnc(-c2ccc(Cl)cc2)c1-c1ccc(Cl)cc1)N1CCCCC1 |  |  | > 1000 | 33 |  |
| O=C(Cn1nc(-c2ccc(Cl)cc2Cl)c(-c2ccc(Cl)cc2Cl)n1)Nc1ccccc1 | > 10000 | 136 | > 1000 |  |  |
| O=C(NC1CCCCC1)n1nc(-c2ccc(Cl)cc2)c(-c2ccc(Cl)cc2Cl)n1 |  |  | > 1000 | 30.5 |  |
| O=C(Cn1nnc(-c2ccc(Cl)cc2Cl)c1-c1ccc(Cl)cc1Cl)N1CCCCC1 |  |  | > 1000 | 55.7 |  |
| O=C(Cn1nc(-c2ccc(Cl)cc2)c(-c2ccc(Cl)cc2Cl)n1)NCc1ccccc1 | > 10000 | 216 | > 1000 |  |  |
| O=C(NC12CC3CC(CC(C3)C1)C2)n1nc(-c2ccc(Cl)cc2)c(-c2ccc(Cl)cc2Cl)n1 |  |  | > 1000 | 34.5 |  |
| O=C(NC12CC3CC(CC(C3)C1)C2)n1nc(-c2ccc(Cl)cc2Cl)c(-c2ccc(Cl)cc2Cl)n1 |  |  | > 1000 | 78.9 |  |
| O=C(Cn1nc(-c2ccc(Cl)cc2Cl)c(-c2ccc(Cl)cc2Cl)n1)NCc1ccc(Cl)cc1 | > 10000 | 17.8 | > 1000 |  |  |
| COc1ccc(CNC(=O)Cn2nc(-c3ccc(Cl)cc3Cl)c(-c3ccc(Cl)cc3Cl)n2)cc1 | > 10000 | 56.2 | > 1000 |  |  |
| O=C(Cn1nc(-c2ccc(Cl)cc2Cl)c(-c2ccc(Cl)cc2Cl)n1)NCc1cccc(F)c1 | > 10000 | 35.1 | > 1000 |  |  |
| O=C(Cn1nc(-c2ccc(Cl)cc2)c(-c2ccc(Cl)cc2Cl)n1)NCc1ccc(F)cc1 | > 10000 | 235 | > 1000 |  |  |
| O=C(NC1CCCCC1)n1nc(-c2ccc(Cl)cc2)c(-c2ccc(Cl)cc2)n1 |  |  | > 1000 | 19.9 |  |
| O=C(NC1CCCCC1)n1nc(-c2ccc(Cl)cc2Cl)c(-c2ccc(Cl)cc2Cl)n1 |  |  | > 1000 | 29.2 |  |
| CCCCOC(=O)Cn1nnc(-c2ccc(Cl)cc2Cl)c1-c1ccc(Cl)cc1Cl |  |  | > 1000 | 46.1 |  |
| O=C(Cn1nc(-c2ccc(Cl)cc2Cl)c(-c2ccc(Cl)cc2Cl)n1)NCc1cc(F)ccc1F | > 10000 | 22 | > 1000 |  | 22.6 |
| O=C(Cn1nc(-c2ccc(Cl)cc2Cl)c(-c2ccc(Cl)cc2Cl)n1)NCc1ccc(F)cc1 | > 10000 | 50.7 | > 1000 |  |  |
| O=C(Cn1nc(-c2ccc(Cl)cc2Cl)c(-c2ccc(Cl)cc2Cl)n1)NC1CCCCC1 | > 10000 | 204 | > 1000 |  |  |
| O=C(Cn1nc(-c2ccc(Cl)cc2)c(-c2ccc(Cl)cc2Cl)n1)NCc1ccccc1F | > 10000 | 256 | > 1000 |  |  |
| CCCCOC(=O)Cn1nnc(-c2ccc(Cl)cc2)c1-c1ccc(Cl)cc1 |  |  | > 1000 | 64.1 |  |

— ChEMBL document CHEMBL1141022, “1,2,3-Triazole derivatives as new cannabinoid CB1 receptor antagonists” (Bioorg Med Chem Lett, 2009)
